Where “and” joins values, the source holds several entries; their conditions need not be identical. Equal values may be shown once. Toxic doses and inconclusive results are not listed. Rule for the calls: active = survival T/C of 150% or more; inactive = T/C below 125% in these data.
System: CD2F1 mice, L1210 leukemia ip, survival T/C
Test: NCI In Vivo Anticancer Drug Screen. Data for tumor model L1210 Leukemia (intraperitoneal) in CD2F1 (CDF1) mice
Details: higher = longer survival
Summary of the method: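 Transplantable tumor in mice; compound-treated vs vehicle-treated groups. Read-out = treated/control ratio of the measured endpoint.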

[1] = endpoint: mean survival time, dose: 25.0 mg/kg/injection, schedule: Q01DX009 (ip), vehicle: saline
[2] = endpoint: mean survival time, dose: 50.0 mg/kg/injection, schedule: Q01DX009 (ip), vehicle: saline
[3] = endpoint: mean survival time, dose: 100.0 mg/kg/injection, schedule: Q01DX009 (ip), vehicle: saline with Tween-80
[4] = endpoint: mean survival time, dose: 100.0 mg/kg/injection, schedule: Q04DX003 (ip), vehicle: saline with Tween-80
[5] = endpoint: mean survival time, dose: 200.0 mg/kg/injection, schedule: Q01DX009 (ip), vehicle: saline with Tween-80
[6] = endpoint: mean survival time, dose: 200.0 mg/kg/injection, schedule: Q04DX003 (ip), vehicle: saline with Tween-80
[7] = endpoint: mean survival time, dose: 400.0 mg/kg/injection, schedule: Q01DX009 (ip), vehicle: saline with Tween-80
[8] = endpoint: mean survival time, dose: 75.0 mg/kg/injection, schedule: Q01DX001 (ip), vehicle: saline
[9] = endpoint: mean survival time, dose: 150.0 mg/kg/injection, schedule: Q01DX001 (ip), vehicle: saline
[10] = endpoint: mean survival time, dose: 100.0 mg/kg/injection, schedule: Q01DX009 (ip), vehicle: Klucel (hydroxypropylcellulose) (HPC)
[11] = endpoint: mean survival time, dose: 200.0 mg/kg/injection, schedule: Q01DX009 (ip), vehicle: Klucel (hydroxypropylcellulose) (HPC)
[12] = endpoint: mean survival time, dose: 400.0 mg/kg/injection, schedule: Q01DX009 (ip), vehicle: Klucel (hydroxypropylcellulose) (HPC)

Measured: T/C

ClCCOCC1CO1 (stereo not drawn)
inactive: endpoint: mean survival time, dose: 150.0 mg/kg/injection, schedule: Q04DX003 (ip), vehicle: saline 101 % of control | endpoint: mean survival time, dose: 225.0 mg/kg/injection, schedule: Q04DX003 (ip), vehicle: saline 104 % of control | endpoint: mean survival time, dose: 335.0 mg/kg/injection, schedule: Q04DX003 (ip), vehicle: saline 96 % of control

CC(C)(O)c1cc(Cl)c(C#N)c(Cl)c1
inactive: endpoint: mean survival time, dose: 37.5 mg/kg/injection, schedule: Q04DX002 (ip), vehicle: saline with Tween-80 109 % of control | endpoint: mean survival time, dose: 75.0 mg/kg/injection, schedule: Q04DX002 (ip), vehicle: saline with Tween-80 102 % of control | endpoint: mean survival time, dose: 150.0 mg/kg/injection, schedule: Q04DX002 (ip), vehicle: saline with Tween-80 102 % of control | endpoint: mean survival time, dose: 300.0 mg/kg/injection, schedule: Q04DX002 (ip), vehicle: saline with Tween-80 93 % of control

CCCCCCC(Sc1nn(C2OC(COC(=O)c3ccccc3)C(OC(=O)c3ccccc3)C2OC(=O)c2ccccc2)c(=O)[nH]c1=O)C(=O)OCC (stereo not drawn)
inactive: endpoint: mean survival time, dose: 12.5 mg/kg/injection, schedule: Q01DX005 (ip), vehicle: distilled water + Tween-80 100 % of control | endpoint: mean survival time, dose: 25.0 mg/kg/injection, schedule: Q01DX005 (ip), vehicle: distilled water + Tween-80 100 % of control | endpoint: mean survival time, dose: 50.0 mg/kg/injection, schedule: Q01DX005 (ip), vehicle: distilled water + Tween-80 94 % of control | endpoint: mean survival time, dose: 100.0 mg/kg/injection, schedule: Q01DX005 (ip), vehicle: distilled water + Tween-80 95 % of control | endpoint: mean survival time, dose: 200.0 mg/kg/injection, schedule: Q01DX005 (ip), vehicle: distilled water + Tween-80 94 % of control

CC1(C)N=C(N)N=C(N)N1c1cccc(CCCCc2ccc(S(=O)(=O)F)cc2)c1
inactive: [1] 105 % of control

C1CCC2C(C1)NC1CCCCC12 (stereo not drawn)
inactive: [1] 89 % of control | [2] 89 % of control

CCCCNC(=O)Oc1ccc(OCc2ccccc2)cc1
inactive: [3] 96 % of control | [4] 94 % of control | [5] 89 % of control | [6] 91 % of control | [7] 92 % of control

NC1CC(CO)C(O)C1O (stereo not drawn)
inactive: [8] 101 % of control | [9] 103 % of control | endpoint: mean survival time, dose: 300.0 mg/kg/injection, schedule: Q01DX001 (ip), vehicle: saline 107 % of control

CCCCCCCCCCCCNC(=O)Nc1cccc(OC)c1
inactive: endpoint: mean survival time, dose: 100.0 mg/kg/injection, schedule: Q04DX002 (ip), vehicle: saline with Tween-80 94 % of control | endpoint: mean survival time, dose: 200.0 mg/kg/injection, schedule: Q04DX002 (ip), vehicle: saline with Tween-80 94 % of control | endpoint: mean survival time, dose: 400.0 mg/kg/injection, schedule: Q04DX002 (ip), vehicle: saline with Tween-80 87 % of control

COc1c(/C=C/CO)cc2c(c1OC)OCO2
inactive: [4] 95 % of control | [6] 102 % of control | endpoint: mean survival time, dose: 400.0 mg/kg/injection, schedule: Q04DX003 (ip), vehicle: saline with Tween-80 102 % of control

CCOC(=O)C(C(=O)OCC)C(C[N+](=O)[O-])c1ccccc1 (stereo not drawn)
inactive: [2] 92 % of control | endpoint: mean survival time, dose: 100.0 mg/kg/injection, schedule: Q01DX009 (ip), vehicle: saline 116 % of control | endpoint: mean survival time, dose: 200.0 mg/kg/injection, schedule: Q01DX009 (ip), vehicle: saline 96 % of control

CCCCCCCCCCCCCCCCOc1ccc(C(=O)OC)cc1NS(=O)(=O)c1ccc(C(=O)O)cc1
inactive: endpoint: mean survival time, dose: 100.0 mg/kg/injection, schedule: Q01DX001 (ip), vehicle: saline with Tween-80 96 % of control | [10] 98 % of control | endpoint: mean survival time, dose: 200.0 mg/kg/injection, schedule: Q01DX001 (ip), vehicle: saline with Tween-80 98 % of control | [11] 95 % of control | endpoint: mean survival time, dose: 400.0 mg/kg/injection, schedule: Q01DX001 (ip), vehicle: saline with Tween-80 91 % of control | [12] 98 % of control

CCC[CH2][Sn-]([CH2]CCC)([CH2]CCC)[O]C(=O)C(C)C
inactive: endpoint: mean survival time, dose: 375.0 micrograms/kg/injection, schedule: Q01DX009 (ip), vehicle: saline 93 % of control | endpoint: mean survival time, dose: 750.0 micrograms/kg/injection, schedule: Q01DX009 (ip), vehicle: saline 100 % of control | endpoint: mean survival time, dose: 1500.0 micrograms/kg/injection, schedule: Q01DX009 (ip), vehicle: saline 96 % of control

COc1ncc(C2OC(CO)C(O)C2O)c(OC)n1 (stereo not drawn)
inactive: endpoint: mean survival time, dose: 25.0 mg/kg/injection, schedule: Q01DX009 (ip), vehicle: other 100 % of control | endpoint: mean survival time, dose: 50.0 mg/kg/injection, schedule: Q01DX009 (ip), vehicle: other 104 % of control | endpoint: mean survival time, dose: 100.0 mg/kg/injection, schedule: Q01DX009 (ip), vehicle: other 96 % of control | endpoint: mean survival time, dose: 200.0 mg/kg/injection, schedule: Q01DX009 (ip), vehicle: other 100 % of control | endpoint: mean survival time, dose: 400.0 mg/kg/injection, schedule: Q01DX009 (ip), vehicle: other 96 % of control

CC1(CO)C2C=CC(C2)C1(C)CO (stereo not drawn)
inactive: [8] 105 % of control | [9] 105 % of control

c1ccc2n[se]nc2c1
inactive: endpoint: mean survival time, dose: 3.13 mg/kg/injection, schedule: Q01DX009 (ip), vehicle: saline 98 % of control | endpoint: mean survival time, dose: 3.13 mg/kg/injection, schedule: Q04DX003 (ip), vehicle: saline 97 % of control | endpoint: mean survival time, dose: 6.25 mg/kg/injection, schedule: Q01DX009 (ip), vehicle: saline 94 % of control | endpoint: mean survival time, dose: 6.25 mg/kg/injection, schedule: Q04DX003 (ip), vehicle: saline 101 % of control | endpoint: mean survival time, dose: 12.5 mg/kg/injection, schedule: Q01DX009 (ip), vehicle: saline 96 % of control | endpoint: mean survival time, dose: 12.5 mg/kg/injection, schedule: Q04DX003 (ip), vehicle: saline 103 % of control

CCOC(=O)c1cc(=O)[nH]c2ccc(OC)cc12
inactive: [3] 98 % of control | [5] 104 % of control | [7] 104 % of control

O=c1[nH]c(=O)n(C2CC(O)C(CO)O2)cc1Br (stereo not drawn)
inactive: endpoint: mean survival time, dose: 25.0 mg/kg/injection, schedule: Q01DX009 (ip), vehicle: Klucel (hydroxypropylcellulose) (HPC) 103 % of control | endpoint: mean survival time, dose: 50.0 mg/kg/injection, schedule: Q01DX009 (ip), vehicle: Klucel (hydroxypropylcellulose) (HPC) 123 % of control | [10] 120 % of control | [11] 112 % of control | [12] 112 % of control | endpoint: mean survival time, dose: 800.0 mg/kg/injection, schedule: Q01DX009 (ip), vehicle: Klucel (hydroxypropylcellulose) (HPC) 115 % of control

CCC[CH2][Sn]1([CH2]CCC)[O]C2C(CO)OC(n3cnc4c(N)ncnc43)C2[O]1 (stereo not drawn)
inactive: endpoint: mean survival time, dose: 0.2 mg/kg/injection, schedule: Q01DX005 (ip), vehicle: other 107 % of control | endpoint: mean survival time, dose: 0.39 mg/kg/injection, schedule: Q01DX005 (ip), vehicle: other 104 % of control | endpoint: mean survival time, dose: 0.78 mg/kg/injection, schedule: Q01DX005 (ip), vehicle: other 104 % of control | endpoint: mean survival time, dose: 1.56 mg/kg/injection, schedule: Q01DX005 (ip), vehicle: other 102 % of control and 107 % of control | endpoint: mean survival time, dose: 3.13 mg/kg/injection, schedule: Q01DX005 (ip), vehicle: other 103 % of control and 110 % of control

N/C(=N\O)c1ncnc2c1ncn2C1OC(CO)C(O)C1O (stereo not drawn)
inactive: endpoint: median survival time, dose: 6.25 mg/kg/injection, schedule: Q01DX005 (ip), vehicle: distilled water + Tween-80 107 % of control | endpoint: median survival time, dose: 12.5 mg/kg/injection, schedule: Q01DX005 (ip), vehicle: distilled water + Tween-80 115 % of control | endpoint: median survival time, dose: 25.0 mg/kg/injection, schedule: Q01DX005 (ip), vehicle: distilled water + Tween-80 108 % of control | endpoint: median survival time, dose: 50.0 mg/kg/injection, schedule: Q01DX005 (ip), vehicle: distilled water + Tween-80 111 % of control | endpoint: median survival time, dose: 100.0 mg/kg/injection, schedule: Q01DX005 (ip), vehicle: distilled water + Tween-80 111 % of control

From PubChem BioAssay AID256 (DTP/NCI, 2004)
